Results as given in ChEMBL document CHEMBL3734705, “Synthesis and in vitro cytotoxicity of novel C-12 substituted-14-deoxy-andrographolide derivatives as potent anti-cancer agents” (2015).

Legend:
[1] = Cytotoxicity against human MOLT4 cells assessed as growth level at 10 uM after 48 hrs by SRB assay; format: functional, MOLT-4
A549 = experiment: Cytotoxicity against human A549 cells assessed as growth level at 10 uM after 48 hrs by SRB assay; format: functional
EKVX = experiment: Cytotoxicity against human EKVX cells assessed as growth level at 10 uM after 48 hrs by SRB assay; format: functional
NCI-H226 = experiment: Cytotoxicity against human NCI-H226 cells assessed as growth level at 10 uM after 48 hrs by SRB assay; format: functional
NCI-H322M = experiment: Cytotoxicity against human NCI-H322M cells assessed as growth level at 10 uM after 48 hrs by SRB assay; format: functional
NCI-H460 = experiment: Cytotoxicity against human NCI-H460 cells assessed as growth level at 10 uM after 48 hrs by SRB assay; format: functional
[2] = Cytotoxicity against human HCT15 cells assessed as growth level at 10 uM after 48 hrs by SRB assay; format: functional, HCT-15
KM12 = experiment: Cytotoxicity against human KM12 cells assessed as growth level at 10 uM after 48 hrs by SRB assay; format: functional
[3] = Cytotoxicity against human SF539 cells assessed as growth level at 10 uM after 48 hrs by SRB assay; format: functional, SF-539
Malme-3M = experiment: Cytotoxicity against human MALME-3M cells assessed as growth level at 10 uM after 48 hrs by SRB assay; format: functional
SK-MEL-28 = experiment: Cytotoxicity against human SK-MEL-28 cells assessed as growth level at 10 uM after 48 hrs by SRB assay; format: functional
[4] = Cytotoxicity against human UACC62 cells assessed as growth level at 10 uM after 48 hrs by SRB assay; format: functional, UACC-62
[5] = Cytotoxicity against human OVCAR5 cells assessed as growth level at 10 uM after 48 hrs by SRB assay; format: functional, OVCAR-5
[6] = Cytotoxicity against human SKOV3 cells assessed as growth level at 10 uM after 48 hrs by SRB assay; format: functional, SK-OV-3
[7] = Cytotoxicity against human RXF393 cells assessed as growth level at 10 uM after 48 hrs by SRB assay; format: functional, RXF 393
SN12C = experiment: Cytotoxicity against human SN12C cells assessed as growth level at 10 uM after 48 hrs by SRB assay; format: functional
[8] = Cytotoxicity against human TK10 cells assessed as growth level at 10 uM after 48 hrs by SRB assay; format: functional, TK-10
[9] = Cytotoxicity against human UO31 cells assessed as growth level at 10 uM after 48 hrs by SRB assay; format: functional, UO-31
MCF7 = experiment: Cytotoxicity against human MCF7 cells assessed as growth level at 10 uM after 48 hrs by SRB assay; format: functional
MDA-MB-231 = experiment: Cytotoxicity against human MDA-MB-231 cells assessed as growth level at 10 uM after 48 hrs by SRB assay; format: functional
[10] = Cytotoxicity against human BT549 cells assessed as growth level at 10 uM after 48 hrs by SRB assay; format: functional, BT-549
T47D = experiment: Cytotoxicity against human T47D cells assessed as growth level at 10 uM after 48 hrs by SRB assay; format: functional
MDA-MB-468 = experiment: Cytotoxicity against human MDA-MB-468 cells assessed as growth level at 10 uM after 48 hrs by SRB assay; format: functional
CCRF-CEM = experiment: Cytotoxicity against human CCRF-CEM cells assessed as growth level at 10 uM after 48 hrs by SRB assay; format: functional
[11] = Cytotoxicity against human HL-60(TB) cells assessed as growth level at 10 uM after 48 hrs by SRB assay; format: functional

C=C1CC[C@@H]2[C@](C)(COC(C)=O)[C@H](OC(C)=O)CC[C@@]2(C)[C@@H]1CC(Nc1ccc(S(=O)(=O)NC(C)=O)cc1)C1=CCOC1=O (mixture of isomers)
Activity [1]: 0.12%
Activity (A549): 27.95%
Activity (EKVX): 57.45%
Activity (NCI-H226): -52.34%
Activity (NCI-H322M): 35.29%
Activity (NCI-H460): 5.29%
Activity [2]: -49.53%
Activity (KM12): -34%
Activity [3]: -76.71%
Activity (Malme-3M): -43.58%
Activity (SK-MEL-28): -36.62%
Activity [4]: -12.47%
Activity [5]: -40.14%
Activity [6]: 67.34%
Activity [7]: -75.81%
Activity (SN12C): 1.94%
Activity [8]: 2.78%
Activity [9]: -58.46%
Activity (MCF7): -33.6%
Activity (MDA-MB-231): -38.71%
Activity [10]: -62.63%
Activity (T47D): -3.67%
Activity (MDA-MB-468): -53.94%
Activity (CCRF-CEM): -27.89%
Activity [11]: -31.09%

C=C1CC[C@@H]2[C@](C)(COC(C)=O)[C@H](OC(C)=O)CC[C@@]2(C)[C@@H]1CC(Sc1ccccc1)C1=CCOC1=O (mixture of isomers)
Activity [1]: -3.93%
Activity (A549): 26.59%
Activity (EKVX): 57.74%
Activity (NCI-H226): -9.88%
Activity (NCI-H322M): 67.11%
Activity (NCI-H460): 21.71%
Activity [2]: -38.36%
Activity (KM12): 18.58%
Activity [3]: -43.56%
Activity (Malme-3M): 16.83%
Activity (SK-MEL-28): 6.34%
Activity [4]: -1.75%
Activity [5]: 39.82%
Activity [6]: 57.71%
Activity [7]: 5.01%
Activity (SN12C): 1.3%
Activity [8]: 11.37%
Activity [9]: 35.65%
Activity (MCF7): 2.14%
Activity (MDA-MB-231): 7.4%
Activity [10]: -22.62%
Activity (T47D): 7.94%
Activity (MDA-MB-468): -61.07%
Activity (CCRF-CEM): -5.24%
Activity [11]: -46.54%
